How the values were obtained:
[1] = Maximum absorption wavelength (λmax) of formazan-nickel chelate by spectrophotometer; format: physicochemical; conditions: chelate of formazan and nickel ion, aqueous MOPS, cell length 10 mm, n=1
Description: 10 mM aqueous solution of MOPS was added to each of the formazan compounds so as to obtain a final concentration of […], and thereby 100 μL of a sample was produced. At this time, all of the samples were red-brown in color. Apart from this, a 1 M aqueous solution of nickel ion was produced.
For mixed solutions of various compounds in an aqueous solution of formazan and an aqueous solution of nickel, the spectra were measured with a spectrophotometer (measurement cell length: 10 mm) (n=1). Based on each of the spectra, the maximum absorption wavelength (λmax) (nm) of each of the compounds in formazan was determined. From FIG. 1, it is understood that the maximum absorption wavelength (λmax) of the chelate compound of formazan compound 1 and nickel ion is 630 nm.
The absorbance at the maximum absorption wavelength is denoted as 100%.

[2] = Evaluation of sensitivity (colour development with glucose, GDH-FAD, m-PMS, nickel; gradient versus WST-4)
Description: Separately, 100 μL of RO water was added to 7 mg of a glucose dehydrogenase that uses flavin adenine dinucleotide (FAD) as a coenzyme (GDH-FAD) (manufactured by TOYOBO CO., LTD., product No.: GLD-351), the enzyme was dissolved, and thus a GDH solution was produced. Furthermore, 200 μL of RO water was added to 3.5 mg of 1-methoxy-5-methylphenazium methyl sulfate (m-PMS) (manufactured by DOJINDO LABORATORIES), and the compound was dissolved therein. Thus, an s-PMS solution was produced. 1 mL of RO water was added to 129 mg of nickel chloride to dissolve the salt, and thus a nickel solution was produced.
40 μL of the reaction solution was added to 10 μL each of an aqueous glucose solution at a concentration of 125 mg/dL, an aqueous glucose solution at a concentration of 250 mg/dL, and an aqueous glucose solution at a concentration of 1,000 mg/dL, and the mixtures were allowed to develop color. The spectra were measured with a spectrophotometer (measurement cell length: 50 μm) (n=1). […] Thus, the gradient (gradientsample) was determined.
40 μL of the control reaction solution was added to 10 μL each of an aqueous glucose solution at a concentration of 125 mg/dL, an aqueous glucose solution at a concentration of 250 mg/dL, and an aqueous glucose solution at a concentration of 1,000 mg/dL, and the mixtures were allowed to develop color. The spectra were measured with a spectrophotometer (measurement cell length: 50 μm) (n=1). For each of the spectra, the absorbance at 650 nm, which is the measurement wavelength (λmax) of WST-4, was measured, and the glucose concentration in the colored solution and the absorbance were plotted on the horizontal axis and the vertical axis, respectively. Thus, the gradient (gradientWST-4) was determined.
FIG. 2 is a graph showing the relationship between the glucose concentration and the absorbance of produced formazan in relation to the tetrazolium compound 1 and WST-4. […] Meanwhile, the gradient serves as an index for the color development intensity of each compound. Therefore, when the value obtained by dividing the gradientsample by the gradientWST-4 (gradientsample/gradientWST-4) is greater than one-fold, it is implied that the intensity of color development on the longer wavelength side is higher compared to WST-4, which is a well-known indicator reagent.

[3] = Evaluation of water-solubility (visual check for precipitate); format: physicochemical; conditions: RO water / 0.5 M MOPS solution (1:1), aqueous buffer, thermodynamic from solid; RO water and 0.5 M MOPS pH 7.2; 200, 100, 20 mM; stirred 5 minutes
Description: After the mixture was stirred for 5 minutes, a precipitate was checked by visual inspection. […] After the mixture was stirred for 5 minutes, a precipitate was checked by visual inspection. […] After the mixture was stirred for 5 minutes, a precipitate was checked by visual inspection.

[4] = Evaluation Example 3: estimation of molar extinction coefficient; format: physicochemical; conditions: colored chelate compound of formazan and Ni2+ at λmax=635 nm; FIG. 18
Description: A measurement solution was produced in the same manner as described in the section for the evaluation of the chelation rate and the maximum absorption wavelength (λmax), using the tetrazolium compound 1 of Example 1.
Estimation of the molar extinction coefficient was carried out using the blood glucose meter sensor of FIG. 13. At this time, it is assumed that tetrazolium compound 1 reacts with glucose at a ratio of 1:1 (molar ratio). The concentration (mol/L) of β-glucose include in the spotted aqueous glucose solution was designated as x, and the value obtained by calculating the absorbance at 630 nm of the blood glucose meter sensor having aqueous glucose solution spotted thereon, to a value per 1 cm, was designated as y. The gradient of a straight line obtained at that time is designated as the molar extinction coefficient (calculated based on a glucose molecular weight 180.16, and a β-glucose ratio in the solution of 62%).
FIG. 18 presents a graph obtained when the concentration (mol/L) of β-glucose was used as x value, and the absorbance at λmax=635 nm of colored chelate compound of formazan and Ni^2+, which was calculated into a value per 1 cm (abs/cm), was used as y value. From the graph, the molar extinction coefficient at λmax=635 nm of a colored chelate compound of formazan and Ni^2+ is ε=22,594 L/mol·cm.

[5] = Evaluation of stability (absorbance increase of measurement solution over 6 hours); conditions: FIG. 3; absorbance increase per hour over 6 hours
Description: To 0.02 mmol of each compound, 75 μL of RO water and 100 μL of a 0.5 M MOPS solution (pH 7.2) were added, and the compound was dissolved therein. The solution was used as a sample.
To 175 μL of this sample, 10 μL of the GDH solution, 5 μL of the m-PMS solution, and 10 μL of the nickel solution, all of which had been produced in the same manner as in the above section (Evaluation of sensitivity), were added, and thereby a measurement solution was produced.
As a control, 85 μL of RO water and 100 μL of a 0.5 M MOPS solution (pH 7.2) were added to 11.6 mg of 2-benzothiazolyl-3-(4-carboxy-2-methoxyphenyl)-5-[4-(2-sulfoethylcarbamoyl)phenyl]-2H-tetrazolium (WST-4), and the compound was dissolved. Thus, a control sample was produced. […] Thus, a control reaction solution was produced.
At the time of production of the measurement solution (0 hour), and after 1 hour, 2 hours, and 6 hours from the production, the spectra of the measurement solutions produced as described above were measured using a spectrophotometer (measurement cell length: 50 μm) (n=1). For each spectrum, the absorbance at the maximum absorption wavelength (λmax) of each compound as determined above was measured. The absorbances measured at the time of production of the measurement solution (0 hour) and after 6 hours from the production were designated as Abs0 h and Abs6 h, respectively. […]

COc1ccc2nc(-n3nc(-c4ccc(S(=O)(=O)O)cc4S(=O)(=O)[O-])n[n+]3-c3ccc(OC)c(S(=O)(=O)O)c3)sc2c1 [Example 1]
Maximum absorption wavelength (λmax) [1]: 630 nm | ratio gradientsample/gradientWST-4 ([2]; FIG. 2): about 2.4 | gradient (absorbance versus glucose concentration) ([2]; FIG. 2, compound 1 at its λmax with nickel, WST-4 at 650 nm without nickel): 0.0063 | Sensitivity, comparison with Comparative Example 5 (rating) ([2]; gradientsample/gradientWST-4, absorbance at λmax versus glucose concentration, cell length 50 μm): ⊙ (gradientsample/gradientWST-4) was 2 or greater) | solubility at 5 min [3]: > 200 mM | molar extinction coefficient ε [4]: 22,594 L/mol·cm | [(Abs6 h−Abs0 h)/6] value [5]: about 0.008

Reference: patent US11739083B2, “Disposable sensor chip with reagent including 2-substituted benzothiazolyl-3-substituted phenyl-5-substituted sulfonated phenyl-2H-tetrazolium salt” (TERUMO KABUSHIKI KAISHA, priority 2016, dated 2023)
